Here are results for 91 compounds from PubChem BioAssay AID1033 (Sanford-Burnham Center for Chemical Genomics, 2008).

The structures appear in SMILES notation. Active and inactive are the calls of the source. No rule for the calls is given here.

The experiment deals with Chaperone protein DnaK (Escherichia coli (strain K12)) (UniProt P0A6Y8). Put plainly: E. coli DnaK SBD ligand binding – biophysical, NMR, chaperone (AID 1033). The following applies: Purified DnaK SBD.
Sequence of Chaperone protein DnaK (Escherichia coli (strain K12)) (P0A6Y8 whole entry, looked up): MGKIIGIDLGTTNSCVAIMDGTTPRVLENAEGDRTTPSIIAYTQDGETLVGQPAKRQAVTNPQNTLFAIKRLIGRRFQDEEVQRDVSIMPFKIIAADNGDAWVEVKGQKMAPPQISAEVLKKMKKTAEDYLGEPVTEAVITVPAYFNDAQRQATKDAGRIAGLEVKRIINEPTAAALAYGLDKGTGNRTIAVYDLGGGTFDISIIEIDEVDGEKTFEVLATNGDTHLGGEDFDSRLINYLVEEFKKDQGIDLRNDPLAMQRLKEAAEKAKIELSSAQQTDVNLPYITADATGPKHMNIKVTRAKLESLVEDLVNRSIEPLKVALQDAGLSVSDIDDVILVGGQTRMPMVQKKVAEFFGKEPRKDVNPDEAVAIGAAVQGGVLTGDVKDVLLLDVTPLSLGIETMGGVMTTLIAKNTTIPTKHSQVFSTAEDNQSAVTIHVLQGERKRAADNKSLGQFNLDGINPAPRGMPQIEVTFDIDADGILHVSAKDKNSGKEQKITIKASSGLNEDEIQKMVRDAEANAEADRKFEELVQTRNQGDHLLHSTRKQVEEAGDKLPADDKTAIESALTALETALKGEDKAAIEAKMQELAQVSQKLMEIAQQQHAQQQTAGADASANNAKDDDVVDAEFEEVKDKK
As for `COc1cccc(NC(=O)c2ncn[nH]2)c1`, the Kd is > 4 mM (inactive).
On to `C[C@@H]1CC[C@@]2(OC1)OC1CC3C4CC=C5C[C@@H](O)CC[C@]5(C)C4CC[C@]3(C)C1[C@@H]2C` (stereo partly specified), for which the Kd is > 4 mM (inactive).
On to `COc1cccc(NC(=O)c2nc3ncccn3n2)c1`, for which the Kd is > 4 mM (inactive).
With `CCOC(=O)c1ccc(F)c(F)c1`, the Kd was > 4 mM (inactive).
As for `Cc1cc(NC(=O)c2cnn3cccnc23)no1`, the Kd was > 4 mM (inactive).
Consider `COC1C=CC23c4cc5c(cc4CN(CC2O)[C@@H]3C1)OCO5` (stereo partly specified), for which the Kd is > 4 mM (inactive).
`CC(NC(=O)c1ccco1)c1ccc2c(c1)OCCO2` (stereo unspecified): the Kd is > 4 mM (inactive).
For `CC1(C)NC(=O)N(CN2CCOCC2)C1=O`, the Kd is > 4 mM (inactive).
Consider `CN1CCN(S(=O)(=O)c2ccc(=O)[nH]c2)CC1`, for which the Kd is > 4 mM (inactive).
In the case of `COc1cc(OC)c(-c2c(OC)cc(OC)cc2OC)c(OC)c1`, the Kd is > 4 mM (inactive).
On to `COC(=O)c1cc2cc(N)ccc2s1`, for which the Kd was > 4 mM (inactive).
The value for `NC(=O)CN1CC(=O)NC(=O)C1` was > 4 mM (inactive); that for `O=C(Nc1nnc(-c2cccnc2)o1)c1ccccc1F` was > 4 mM (inactive).
Consider `c1cc2c(cc1[C@H]1OC[C@H]3[C@@H]1CO[C@H]3c1ccc3c(c1)OCO3)OCO2`, for which the Kd was > 4 mM (inactive).
The value for `COc1ccc2cnn(-c3ccccc3)c(=O)c2c1OC` was > 4 mM (inactive).
With `Cc1ccc(C)n1CCN1CCNCC1`, the Kd was > 4 mM (inactive).
The value for `Nc1nnc(SCc2cccnc2)s1` was > 4 mM (inactive); that for `CN1CCn2c1nc(N1CCOCC1)nc2=O` was > 4 mM (inactive).
The value for `O=C1CSC2=NCCCN12` was > 4 mM (inactive); that for `CC1=C(C(N)=O)C(c2cccs2)C(C(N)=O)=C(C)N1` was > 4 mM (inactive); that for `CNC(=O)c1c(O)c2ccccc2[nH]c1=O` was > 4 mM (inactive).
With `CC(C)=CCCC1(C)C=Cc2c(O)c3c(c(CC=C(C)C)c2O1)OC12C(=CCCC1C(C)(C)O[C@@]2(C/C=C(\C)C(=O)O)C(=O)O)C3=O` (stereo partly specified), the Kd was > 4 mM (inactive).
On to `Cc1cc(NC(=O)c2cccc(N3C(=O)CCC3=O)c2)no1`, for which the Kd is > 4 mM (inactive).
On to `O=C(NCc1ccc2c(c1)OCO2)c1cccs1`, for which the Kd was > 4 mM (inactive).
Regarding `COC(=O)c1oc2ccc(Cl)cc2c1NC(C)=O`, the Kd was > 4 mM (inactive).
Consider `Cc1cc2c(nn1)CCc1nonc1-2`, for which the Kd is > 4 mM (inactive).
In the case of `Cc1cc2ncc(C(=O)Nc3ccccc3)c(C)n2n1`, the Kd is > 4 mM (inactive).
Turning to `CCc1noc(C)c1C(=O)N1CCCC1`, the Kd was > 4 mM (inactive).
Consider `C[C@]12CCC3C(CC[C@]4(O)C[C@@H](O)CC[C@]34C=O)[C@@]1(O)CCC2C1=CC(=O)OC1` (stereo partly specified), for which the Kd is > 4 mM (inactive).
The value for `Cc1cc(N2CCN(C)CC2)ncn1` was > 4 mM (inactive); that for `CC1(C)O[C@H]2CC(=O)OC[C@]23[C@H]2CC[C@@]4(C)[C@H](c5ccoc5)OC(=O)[C@H]5O[C@]54[C@]2(C)C(=O)C[C@@H]13` was > 4 mM (inactive); that for `CC(=O)O[C@H]1CC[C@@]2(C)C(CC[C@]3(C)C2C(=O)C=C2C4[C@@H](C)[C@H](C)CC[C@]4(C(=O)O)CC[C@]23C)C1(C)C` (stereo partly specified) was > 4 mM (inactive).
Under `O=C(O)C1C(=O)NCC1c1ccccc1` (stereo unspecified) stands > 4 mM (inactive); under `NC(=O)Cc1nc2ccccc2[nH]1`, > 4 mM (inactive); under `CC(C)(C)CC(=O)NC1=NCCS1`, > 4 mM (inactive).
Consider `O=C(/C(=N\O)n1cncn1)c1ccccc1Cl`, for which the Kd was > 4 mM (inactive).
Under `COC(=O)Nc1nnc(-c2ccncc2)s1` stands > 4 mM (inactive); under `C=C1C([C@]2(C)C(CC(=O)OC)[C@@](C)(COC(C)=O)OC(=O)C[C@@H]2OC(C)=O)[C@@H](OC=O)[C@H](OC(=O)C(O)C(C)CC)[C@@]2(C)[C@H](c3ccoc3)CC(=O)C12O` (stereo partly specified), > 4 mM (inactive).
The value for `CC(=O)Nc1ccn(-c2ccccc2)n1` was > 4 mM (inactive); that for `CC(=O)NC(=S)Nc1ccccc1N1CCOCC1` was > 4 mM (inactive).
As for `S=C(NC1CC1)NN1CCOCC1`, the Kd is > 4 mM (inactive).
For the compound `N#Cc1sc2nc3c(c(-c4cccnc4)c2c1N)CCC3`, the Kd is > 4 mM (inactive).
On to `Nc1cccc(S(=O)(=O)N2CCCC2)c1`, for which the Kd is > 4 mM (inactive).
Consider `Cc1cc(NC(=O)CSc2nncn2C)no1`, for which the Kd is > 4 mM (inactive).
`COc1ccc2c(c1)O[C@H]1c3ccc(OC)cc3OC[C@@H]21`: the Kd is > 4 mM (inactive).
Take `CC(=O)O[C@H]1CC[C@@]2(C)C(=CCC3C2CC[C@@]2(C)C3CC[C@@H]2C(C)CCCC(C)C)C1` (stereo partly specified): the Kd was > 4 mM (inactive).
On to `O=c1[nH]cc(COCc2ccccc2)c(=O)[nH]1`, for which the Kd is > 4 mM (inactive).
The value for `CC(C)=CC1C(C(=O)O)C1(C)C` (stereo unspecified) was > 4 mM (inactive).
The value for `CN1CCC(O)N1C(=O)c1ccccc1O` (stereo unspecified) was > 4 mM (inactive); that for `O=c1ccn(Cc2ccccc2)c(=O)n1Cc1ccccc1` was > 4 mM (inactive).
As for `CC1(C)Oc2ccc3ccc(=O)oc3c2CC1O` (stereo unspecified), the Kd is > 4 mM (inactive).
The value for `C[C@H](CCC(=O)O)[C@H]1CCC2C3C(CC[C@@]21C)[C@@]1(C)CC[C@@H](O)C[C@H]1C[C@@H]3O` (stereo partly specified) was > 4 mM (inactive).
As for `Cn1cnc([N+](=O)[O-])c1Sc1ncnc2nc[nH]c12`, the Kd is > 4 mM (inactive).
In the case of `CC(=O)CC1(O)C(=O)Nc2ccc(Br)cc21` (stereo unspecified), the Kd was > 4 mM (inactive).
`O=c1c(-c2ccccc2)coc2cc(O)cc(O)c12`: the Kd was > 4 mM (inactive).
The value for `Nc1ncnc(Nc2ccccc2C(F)(F)F)n1` was > 4 mM (inactive).
Consider `Cc1ccc(/C=C2/C(=O)N=C(N)N2C)s1`, for which the Kd was > 4 mM (inactive).
Under `O=C(OC[C@H]1O[C@H](OC(=O)c2cc(O)c(O)c(OC(=O)c3cc(O)c(O)c(O)c3)c2)[C@H](OC(=O)c2cc(O)c(O)c(OC(=O)c3cc(O)c(O)c(O)c3)c2)[C@@H](OC(=O)c2cc(O)c(O)c(OC(=O)c3cc(O)c(O)c(O)c3)c2)[C@@H]1OC(=O)c1cc(O)c(O)c(OC(=O)c2cc(O)c(O)c(O)c2)c1)c1cc(O)c(O)c(OC(=O)c2cc(O)c(O)c(O)c2)c1` stands > 4 mM (inactive); under `Cc1cc(C(=O)NCc2cccnc2)cs1`, > 4 mM (inactive).
Regarding `O=c1cc(-c2ccccc2)oc2c(O)c(O)ccc12`, the Kd is > 4 mM (inactive).
`CCCn1cnc2sc(C(N)=O)c(C)c2c1=O`: the Kd is > 4 mM (inactive).
For the compound `Cc1occc1C(=O)NCc1ccccc1F`, the Kd was > 4 mM (inactive).
Under `NC(=O)CN1C(=O)c2cccc3cccc1c23` stands > 4 mM (inactive); under `O=c1c(-c2ccc(O)cc2)coc2cc(O)ccc12`, > 4 mM (inactive); under `O=C1NC(=Nc2ccccc2)S/C1=C/c1cccnc1`, > 4 mM (inactive).
Under `CCOC(=O)C1C(=O)C2CCN1CC2` (stereo unspecified) stands > 4 mM (inactive).
As to `C[C@@H]1OC(O[C@H]2[C@H](OC(=O)[C@]34CCC(C)(C)CC3C3=CCC5[C@@]6(C)CC[C@H](OC7O[C@@H](C)[C@H](O[C@@H]8OC[C@@H](O)[C@H](O)[C@H]8O)[C@@H](O)[C@H]7O)C(C)(C)C6CC[C@@]5(C)[C@]3(C)CC4O)OC[C@H](O)[C@H]2O)[C@H](O)[C@H](O)[C@H]1O[C@@H]1O[C@H](CO)[C@@H](O)[C@H](O)[C@H]1O` (stereo partly specified), the Kd was > 4 mM (inactive).
The value for `CCC(=O)NC(=S)Nc1ccc(O)cc1` was > 4 mM (inactive); that for `Cc1nn(C)c2sc(CO)cc12` was > 4 mM (inactive).
Take `COc1cc2c(cc1OC)[C@@H]1C(=O)c3ccc(O)c(CC=C(C)C)c3O[C@@H]1CO2`: the Kd was > 4 mM (inactive).
For the compound `O=C(O)CNC(=O)c1ccccc1`, the Kd is > 4 mM (inactive).
For the compound `CC(C)c1ccc2c(c1O)CC[C@H]1C3=C(CC[C@]21C)C(=O)OC3`, the Kd is > 4 mM (inactive).
On to `O=C(CNC(=O)c1ccc(F)cc1)NC1=NCCS1`, for which the Kd was > 4 mM (inactive).
As for `Clc1ccc(SCCn2cncn2)cc1`, the Kd is > 4 mM (inactive).
For `OC[C@H]1O[C@@](CO)(O[C@@H]2O[C@H](CO)[C@@H](O)[C@H](O)[C@H]2O)[C@@H](O[C@@H]2O[C@H](CO)[C@@H](O)[C@H](O)[C@H]2O)[C@@H]1O`, the Kd is > 4 mM (inactive).
Turning to `Clc1ncnc2[nH]ncc12`, the Kd is > 4 mM (inactive).
As for `NC(=O)C1CCN(C(=S)c2cccs2)CC1`, the Kd was > 4 mM (inactive).
On to `N/C(=N/S(=O)(=O)c1cccs1)c1ccccc1`, for which the Kd is > 4 mM (inactive).
Take `O=C(O)c1ccccc1N1CCOCC1`: the Kd is > 4 mM (inactive).
In the case of `Cc1ccc(CN2C3=NC(=O)CN3c3ccccc32)cc1`, the Kd is > 4 mM (inactive).
The value for `CC(C)=CCC[C@](C)(O)C1CC=C(C)CC1` (stereo partly specified) was > 4 mM (inactive); that for `OCC1=Cc2ccccc2OC1` was > 4 mM (inactive).
In the case of `NC1=NC(=O)/C(=C\c2ccccc2)S1`, the Kd was > 4 mM (inactive).
Under `CN1CCN(CC(O)c2ccccc2)CC1` (stereo unspecified) stands > 4 mM (inactive); under `CC(=O)O[C@@H]1c2c(ccc3ccc(=O)oc23)OC(C)(C)[C@@H]1OC(=O)CC(C)C`, > 4 mM (inactive); under `O=C(O)CCN1CCc2ccccc2C1c1ccncc1` (stereo unspecified), > 4 mM (inactive).
As to `CC(C)=CCc1c(O)cc2oc(C)cc(=O)c2c1O`, the Kd is > 4 mM (inactive).
Under `CC1(C)CC(=O)c2cnn(-c3nc4ccccc4[nH]3)c2C1` stands > 4 mM (inactive); under `CC1(C)CC(NC(=O)/C=C/C(=O)O)CC(C)(C)N1`, > 4 mM (inactive); under `N#CCSc1nc(-c2ccccc2)cs1`, > 4 mM (inactive).
Regarding `CC(=O)c1ccc2c(c1)OCCO2`, the Kd is > 4 mM (inactive).

As usually defined, the Kd is the concentration at which binding is half-saturated.
